From PMC6274262, “Synthesis of Novel Symmetrical 1,4-Disubstituted 1,2,3-Bistriazole Derivatives via ‘Click Chemistry’ and Their Biological Evaluation” (Molecules, 2016)

Experiments:
[1] = Superoxide radical scavenging assay (NBT photo reduction method); conditions: pH 7.8, 30 °C, 10 min, 560 nm, mean ± S.D., triplicate
Protocol: Superoxide scavenging activity of the compounds and reference were tested in a non-enzymatic superoxide radical (O2^−•) generation assay using a modified spectrophotometrical nitro blue tetrazolium (NBT) photo reduction method. The total volume of the assay mixtures containing riboflavin (2 μM), methionine (13 mM), NBT ([…]), EDTA (0.1 mM), and the test samples (50 mM phosphate buffer, pH = 7.8) was 1 mL. After illuminating with a fluorescent lamp at 30 °C for 10 min., the absorbance of the samples (Asample) was measured at 560 nm. Assay mixture without the compound was used as control (control absorbance, Acontrol). All experiments were carried out in triplicate and results were expressed as the mean ± standard deviation (S.D.). Free O2^−• radical scavenging effect was calculated using Equation (1).

[2] = target: T1, Electric eel acetyl-cholinesterase enzyme (AchE, Type-VI-S; EC 3.1.1.7) (Electrophorus electricus, UniProt O42275); test: biochemical; conditions: mean ± S.D. of three independent experiments; Tris-HCl pH 8.00, 412 nm
T1 construct: purchased Sigma-Aldrich Type-VI-S
Protocol: Firstly, all of the compounds stock solution in DMF (1 × 10^−3 M) were prepared and then five different concentrations were prepared from stock solution in buffer (Tris-HCI pH 8.00) for experiments. Briefly 50 µL of 50 mM Tris-HCl buffer (pH 8.00), 125 µL of 3 mM DTNB (in buffer), 25 µL of 0.2 U/mL AChE and 25 µL of sample dissolved in buffer and incubated for 15 min. at 25 °C. Fifteen minutes later, 25 µL of 15 mM acetyl thiocholine iodide were added and incubated 5 min. at room temperature. The reaction was initiated by the addition of acetylcholine iodide. The hydrolysis of this substrate was monitored by the formation of the yellow 5-thio-2-nitrobenzoate anion as a result of the reaction DTNB with thiocholine, catalized by enzyme at a wave length of 412 nm using a 96-well microplate reader (Multiskan Go UV-spectrophotometer, Thermo Fisher Scientific Oy Ratastie 2, Vantaa, Finland).
Inhibition of AChE was calculated by the comparison of reaction rates of the samples relative to the blank sample (DMF in phosphate buffer pH = 8) using the Equation (1) where Acontrol is the activity of enzyme without test sample and Asample is the activity of enzyme with test sample: (1) Scavenging effects (%)=[(Acontrol−Asample)/Acontrol]×100
The experiments were carried out in triplicate and IC50 values were examined.

[3] = DPPH radical scavenging assay; conditions: 0.1 mM methanolic DPPH, 30 min in the dark, 517 nm; mean ± S.D., triplicate
Protocol: Some 1,2,3-triazole compounds are known to act either as inhibitors of free radical production or as radical scavengers. Therefore, the potential antioxidant property of the new 1,2,3-trizole compounds was evaluated by determining their DPPH and SOD radical scavenging ability. DPPH is a stable free radical that accepts an electron or hydrogen radical to become a stable species. Due to its odd electron, DPPH gives a strong absorption band at 517 nm. Antioxidants are suitable reducing agents and neutralize the free radicals by pairing the DPPH odd electron with a hydrogen atom, and the DPPH solution turns yellow, observed as the decrease in absorbance at 517 nm.
The compounds were tested for in vitro antioxidant activities by the 2,2-diphenyl-1-picrylhydrazyl (DPPH) free radical scavenging assay method. The total volume of the assay mixtures containing methanolic DPPH solution (0.1 mM) and different concentrations of samples was 1 mL. After incubation in the dark at room temperature for 30 min., absorbance of the samples (Asample) was measured at 517 nm. Assay mixture without compound was used as control (control absorbance, Acontrol). All experiments were carried out in triplicate and results were expressed as the mean ±standard deviation (S.D.). Butylatedhydroxyanisole (BHA) were used as the reference compound. Free radical scavenging effect was calculated using Equation (1).

C. albicans ATCC 60193 = test: Agar-well diffusion antimicrobial screening; assay type: cell-based, Candida albicans
S. cerevisiae RSKK 251 = test: Agar-well diffusion antimicrobial screening; assay type: cell-based, Saccharomyces cerevisiae

T1 sequence (O42275 24-633): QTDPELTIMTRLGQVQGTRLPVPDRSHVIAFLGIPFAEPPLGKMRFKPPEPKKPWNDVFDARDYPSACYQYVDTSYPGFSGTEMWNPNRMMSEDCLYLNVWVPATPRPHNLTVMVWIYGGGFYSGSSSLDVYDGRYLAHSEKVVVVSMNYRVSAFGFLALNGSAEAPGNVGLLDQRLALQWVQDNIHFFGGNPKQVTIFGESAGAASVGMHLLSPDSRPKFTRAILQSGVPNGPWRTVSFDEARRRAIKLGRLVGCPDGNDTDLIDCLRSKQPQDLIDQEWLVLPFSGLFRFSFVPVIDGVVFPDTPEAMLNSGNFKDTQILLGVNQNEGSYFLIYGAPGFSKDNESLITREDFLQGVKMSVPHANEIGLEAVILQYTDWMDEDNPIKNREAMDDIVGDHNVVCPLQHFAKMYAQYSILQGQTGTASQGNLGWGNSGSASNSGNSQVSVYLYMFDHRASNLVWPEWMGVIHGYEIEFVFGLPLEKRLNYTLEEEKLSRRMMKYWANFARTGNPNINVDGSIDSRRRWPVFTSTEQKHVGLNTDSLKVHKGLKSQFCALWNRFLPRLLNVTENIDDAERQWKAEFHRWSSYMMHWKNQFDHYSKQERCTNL

COc1cc(C(C)=O)ccc1OCc1cn(CCCCCn2cc(COc3ccc(C(C)=O)cc3OC)nn2)nn1 [Compound 3c]
SOD IC50 [1]: 284.10 (±0.07) µg/mL | IC50 [2]: 75.7 µM | DPPH IC50 [3]: 188.45 (±0.11) µg/mL

O=Cc1ccc(OCc2cn(CCCCCCCCn3cc(COc4ccc(C=O)cc4)nn3)nn2)cc1 [Compound 4e, 4,4′-(((Octane-1,8-diylbis(1H-1,2,3-triazole-1,4-diyl))bis(methylene))bis(oxy))dibenzaldehyde]
SOD IC50 [1]: 88.86 (±0.09) µg/mL | Inhibition Zone Ca (C. albicans ATCC 60193): 6 mm | IC50 [2]: 63.4 µM | DPPH IC50 [3]: 192.04 (±0.09) µg/mL

COc1cc(C=O)ccc1OCc1cn(CCCCCn2cc(COc3ccc(C=O)cc3OC)nn2)nn1 [Compound 5c]
SOD IC50 [1]: 145.68 (±0.11) µg/mL | IC50 [2]: 69.4 µM | DPPH IC50 [3]: 192.46 (±0.11) µg/mL

CC(=O)c1ccc(OCc2cn(CCCCCn3cc(COc4ccc(C(C)=O)cc4)nn3)nn2)cc1 [Compound 2c, 1,1′-((((Pentane-1,5-diylbis(1H-1,2,3-triazole-1,4-diyl))bis(methylene))bis(oxy))bis(4,1-phenylene))bis(ethan-1-one)]
SOD IC50 [1]: 147.36 (±0.05) µg/mL | Inhibition Zone Ca (C. albicans ATCC 60193): 6 mm | IC50 [2]: 67 µM | DPPH IC50 [3]: 175.65 (±0.06) µg/mL

COc1cc(C(C)=O)ccc1OCc1cn(CCCCn2cc(COc3ccc(C(C)=O)cc3OC)nn2)nn1 [Compound 3b, 1-(4-((1-(4-(4-((4-Acetyl-2-methoxyphenoxy)methyl)-1H-1,2,3-triazol-1-yl)butyl)-1H-1,2,3-triazol-4-yl)-methoxy)-2-methoxyphenyl)ethan-1-one]
SOD IC50 [1]: 51.37 (±0.07) µg/mL | IC50 [2]: 57 µM | DPPH IC50 [3]: 113.63 (±0.05) µg/mL

COc1cc(C=O)ccc1OCc1cn(CCCCCCn2cc(COc3ccc(C=O)cc3OC)nn2)nn1 [Compound 5d]
SOD IC50 [1]: 157.14 (±0.07) µg/mL | IC50 [2]: 70.3 µM | DPPH IC50 [3]: 191.39 (±0.08) µg/mL

COc1cc(C(C)=O)ccc1OCc1cn(CCCCCCCCCCn2cc(COc3ccc(C(C)=O)cc3OC)nn2)nn1 [Compound 3f]
SOD IC50 [1]: 98.35 (±0.06) µg/mL | IC50 [2]: 78.6 µM | DPPH IC50 [3]: 207.57 (±0.09) µg/mL

COc1cc(C=O)ccc1OCc1cn(CCCCn2cc(COc3ccc(C=O)cc3OC)nn2)nn1 [Compound 5b]
SOD IC50 [1]: 109.17 (±0.10) µg/mL | IC50 [2]: 61.8 µM | DPPH IC50 [3]: 154.51 (±0.07) µg/mL

O=Cc1ccc(OCc2cn(CCCCCn3cc(COc4ccc(C=O)cc4)nn3)nn2)cc1 [Compound 4c, 4,4′-(((Pentane-1,5-diylbis(1H-1,2,3-triazole-1,4-diyl))bis(methylene))bis(oxy))dibenzaldehyde]
SOD IC50 [1]: 60.32 (±0.07) µg/mL | Inhibition Zone Ca (C. albicans ATCC 60193): 6 mm | IC50 [2]: 83.4 µM | DPPH IC50 [3]: 227.38 (±0.07) µg/mL

CC(=O)c1ccc(OCc2cn(CCCn3cc(COc4ccc(C(C)=O)cc4)nn3)nn2)cc1 [Compound 2a, 1,1′-((((Propane-1,3-diylbis(1H-1,2,3-triazole-1,4-diyl))bis(methylene))bis(oxy))bis(4,1-phenylene))bis(ethan-1-one)]
SOD IC50 [1]: 45.12 (±0.04) µg/mL | IC50 [2]: 64.7 µM | DPPH IC50 [3]: 155.49 (±0.08) µg/mL

O=Cc1ccc(OCc2cn(CCCn3cc(COc4ccc(C=O)cc4)nn3)nn2)cc1 [Compound 4a, 4,4′-(((Propane-1,3-diylbis(1H-1,2,3-triazole-1,4-diyl))bis(methylene))bis(oxy))dibenzaldehyde]
SOD IC50 [1]: 55.67 (±0.08) µg/mL | IC50 [2]: 62.8 µM | DPPH IC50 [3]: 192.02 (±0.12) µg/mL

O=Cc1ccc(OCc2cn(CCCCn3cc(COc4ccc(C=O)cc4)nn3)nn2)cc1 [Compound 4b, 4,4′-(((Butane-1,4-diylbis(1H-1,2,3-triazole-1,4-diyl))bis(methylene))bis(oxy))dibenzaldehyde]
SOD IC50 [1]: 121.74 (±0.08) µg/mL | Inhibition Zone Ca (C. albicans ATCC 60193): 6 mm | IC50 [2]: 74.1 µM | DPPH IC50 [3]: 125.05 (±0.08) µg/mL

CC(=O)c1ccc(OCc2cn(CCCCCCCCn3cc(COc4ccc(C(C)=O)cc4)nn3)nn2)cc1 [Compound 2e, 1,1′-((((Octane-1,8-diylbis(1H-1,2,3-triazole-1,4-diyl))bis(methylene))bis(oxy))bis(4,1-phenylene))bis(ethan-1-one)]
SOD IC50 [1]: 131.43 (±0.06) µg/mL | IC50 [2]: 66.4 µM | DPPH IC50 [3]: 222.16 (±0.07) µg/mL

O=Cc1ccc(OCc2cn(CCCCCCn3cc(COc4ccc(C=O)cc4)nn3)nn2)cc1 [Compound 4d, 4,4′-(((Hexane-1,6-diylbis(1H-1,2,3-triazole-1,4-diyl))bis(methylene))bis(oxy))dibenzaldehyde]
SOD IC50 [1]: 82.77 (±0.11) µg/mL | IC50 [2]: 58.5 µM | DPPH IC50 [3]: 204.31 (±0.11) µg/mL

CC(=O)c1ccc(OCc2cn(CCCCCCn3cc(COc4ccc(C(C)=O)cc4)nn3)nn2)cc1 [Compound 2d, 1,1′-((((Hexane-1,6-diylbis(1H-1,2,3-triazole-1,4-diyl))bis(methylene))bis(oxy))bis(4,1-phenylene))bis(ethan-1-one)]
SOD IC50 [1]: 154.79 (±0.06) µg/mL | Inhibition Zone Ca (C. albicans ATCC 60193): 6 mm | IC50 [2]: 62.4 µM | DPPH IC50 [3]: 152.84 (±0.05) µg/mL

COc1cc(C(C)=O)ccc1OCc1cn(CCCn2cc(COc3ccc(C(C)=O)cc3OC)nn2)nn1 [Compound 3a]
SOD IC50 [1]: 120.53 (±0.04) µg/mL | Inhibition Zone Ca (C. albicans ATCC 60193): 6 mm | IC50 [2]: 63.3 µM | DPPH IC50 [3]: 141.57 (±0.08) µg/mL

COc1cc(C=O)ccc1OCc1cn(CCCCCCCCn2cc(COc3ccc(C=O)cc3OC)nn2)nn1 [Compound 5e]
SOD IC50 [1]: 188.84 (±0.08) µg/mL | IC50 [2]: 61.8 µM | DPPH IC50 [3]: 221.57 (±0.06) µg/mL

4-((1-(10-(4-((4-Formyl-2-methoxyphenoxy)methyl)-1H-1,2,3-triazol-1-yl)decyl)-1H-1,2,3-triazol-4-yl)-methoxy)-2-methoxybenzaldehyde [Compound 5f]
Inhibition Zone Sc (S. cerevisiae RSKK 251): -

O=Cc1ccc(OCc2cn(CCCCCCCCCCn3cc(COc4ccc(C=O)cc4)nn3)nn2)cc1 [Compound 4f, 4,4′-(((Decane-1,10-diylbis(1H-1,2,3-triazole-1,4-diyl))bis(methylene))bis(oxy))dibenzaldehyde]
SOD IC50 [1]: 93.47 (±0.09) µg/mL | IC50 [2]: 62.5 µM | DPPH IC50 [3]: 210.33 (±0.08) µg/mL

CC(=O)c1ccc(OCc2cn(CCCCn3cc(COc4ccc(C(C)=O)cc4)nn3)nn2)cc1 [Compound 2b, 1,1′-((((Butane-1,4-diylbis(1H-1,2,3-triazole-1,4-diyl))bis(methylene))bis(oxy))bis(4,1-phenylene))bis(ethan-1-one)]
SOD IC50 [1]: 107.54 (±0.07) µg/mL | IC50 [2]: 52.3 µM | DPPH IC50 [3]: 158.72 (±0.05) µg/mL

CC(=O)c1ccc(OCc2cn(CCCCCCCCCCn3cc(COc4ccc(C(C)=O)cc4)nn3)nn2)cc1 [Compound 2f, 1,1′-((((Decane-1,10-diylbis(1H-1,2,3-triazole-1,4-diyl))bis(methylene))bis(oxy))bis(4,1-phenylene))bis-(ethan-1-one)]
SOD IC50 [1]: 88.15 (±0.06) µg/mL | IC50 [2]: 50.8 µM | DPPH IC50 [3]: 167.51 (±0.05) µg/mL

COc1cc(C=O)ccc1OCc1cn(CCCn2cc(COc3ccc(C=O)cc3OC)nn2)nn1 [Compound 5a]
SOD IC50 [1]: 126.2 (±0.07) µg/mL | IC50 [2]: 74.7 µM | DPPH IC50 [3]: 150.03 (±0.08) µg/mL

COc1ccc(O)c(C(C)(C)C)c1 [BHA, Butylatedhydroxyanisole, reference compound]
DPPH IC50 [3]: 98.56 (±0.08) µg/mL
